Experimental findings from patent US7064204B2, “Pharmaceutically active compounds having a tricyclic pyrazolotriazolopyrimidine ring structure and methods of use” (King Pharmacueticals Reserch and Development, Inc., priority 2002, dated 2006) are described below.

By Ki is commonly meant a dissociation constant, usually derived from enzyme kinetics or from competition with a known ligand.

The target in assay [1] is T1, human A2A adenosine receptors (Homo sapiens, UniProt P29274).
T1 construct: expressed in transfected cells; host or cells: CHO cells
T1 sequence (P29274 whole entry): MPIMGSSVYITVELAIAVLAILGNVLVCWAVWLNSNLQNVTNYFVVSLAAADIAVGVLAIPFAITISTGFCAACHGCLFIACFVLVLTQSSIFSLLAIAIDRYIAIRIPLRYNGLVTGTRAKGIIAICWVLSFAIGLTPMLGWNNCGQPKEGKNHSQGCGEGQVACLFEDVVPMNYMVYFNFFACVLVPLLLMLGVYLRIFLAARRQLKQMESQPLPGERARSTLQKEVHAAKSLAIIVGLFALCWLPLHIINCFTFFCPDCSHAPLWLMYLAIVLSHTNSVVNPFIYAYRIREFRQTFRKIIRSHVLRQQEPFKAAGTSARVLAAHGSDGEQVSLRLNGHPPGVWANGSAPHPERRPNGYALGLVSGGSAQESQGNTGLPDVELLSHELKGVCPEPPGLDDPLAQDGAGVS
The assay can be described thus: Displacement of [3H]SCH58261 binding at human A2A adenosine receptors expressed in CHO cells. Particulars: for Ki: CHO cells; for affinity for A2A adenosine receptor subtype: in words, discussion of Tables 2 and 3. A general note: In a radioligand displacement assay an active substance lowers the binding of a labelled ligand.

The target in assay [2] is T2, human A3 adenosine receptors (Homo sapiens, UniProt P0DMS8).
T2 sequence (P0DMS8 1-318): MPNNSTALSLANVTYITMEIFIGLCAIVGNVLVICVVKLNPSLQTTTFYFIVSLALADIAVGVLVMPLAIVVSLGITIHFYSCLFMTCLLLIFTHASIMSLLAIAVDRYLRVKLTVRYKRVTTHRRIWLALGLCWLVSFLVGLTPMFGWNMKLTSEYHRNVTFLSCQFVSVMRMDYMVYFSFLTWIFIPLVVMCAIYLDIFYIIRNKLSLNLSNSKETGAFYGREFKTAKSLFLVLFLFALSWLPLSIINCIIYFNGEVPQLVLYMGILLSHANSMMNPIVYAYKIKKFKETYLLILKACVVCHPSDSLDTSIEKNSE
The experiment in a line: Displacement of [3H]MRE 3008F20 binding at human A3 adenosine receptors expressed in CHO cells. More on the design: expressed in transfected cells; host or cells: CHO cells.

The target of assay [3] is T3, human A2B adenosine receptors (Homo sapiens, UniProt P29275).
T3 construct: expressed in transfected cells; host or cells: HEK-293 cells
T3 sequence (P29275 1-332): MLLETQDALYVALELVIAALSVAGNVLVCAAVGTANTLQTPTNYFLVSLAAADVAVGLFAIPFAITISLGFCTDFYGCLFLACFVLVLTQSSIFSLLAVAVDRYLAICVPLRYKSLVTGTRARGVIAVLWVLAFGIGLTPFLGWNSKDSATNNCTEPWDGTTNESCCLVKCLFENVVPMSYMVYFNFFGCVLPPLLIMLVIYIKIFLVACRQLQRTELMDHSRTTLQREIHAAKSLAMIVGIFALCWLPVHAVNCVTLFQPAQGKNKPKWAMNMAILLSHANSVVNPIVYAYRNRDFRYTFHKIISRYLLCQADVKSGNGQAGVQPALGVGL
The experiment in a line: Displacement of [3H]DPCPX binding at human A2B adenosine receptors expressed in HEK-293 cells.

Assay [4] concerns the target T4, human A1 adenosine receptors (Homo sapiens, UniProt P30542).
T4 construct: expressed in transfected cells; host or cells: CHO cells
T4 sequence (P30542 1-326): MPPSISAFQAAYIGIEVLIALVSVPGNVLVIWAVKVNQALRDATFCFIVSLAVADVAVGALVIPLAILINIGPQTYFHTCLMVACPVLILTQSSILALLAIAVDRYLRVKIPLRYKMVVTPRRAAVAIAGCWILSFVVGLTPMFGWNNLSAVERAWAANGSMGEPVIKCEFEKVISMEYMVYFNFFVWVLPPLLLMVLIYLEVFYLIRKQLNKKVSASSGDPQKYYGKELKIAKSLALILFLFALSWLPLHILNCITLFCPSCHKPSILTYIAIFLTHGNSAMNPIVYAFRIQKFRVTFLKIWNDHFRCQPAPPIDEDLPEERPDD
The experiment in a line: Displacement of [3H]DPCPX binding at human A1 adenosine receptors expressed in CHO cells.

The mark [5] stands for this setting: Table 2, footnote b: [3H]SCH58261, human A2A.
Setting [6] is: Table 2, footnote b: [3H]MRE 3008F20, human A3, CHO cells.
The mark [7] stands for this setting: Table 2, footnote b: [3H]DPCPX, human A1.
The mark [8] stands for this setting: Table 3: [3H]DPCPX, human A1, CHO cells.
[9] abbreviates: Table 3: [3H]SCH58261, human A2A.
Setting [10] is: Table 3: [3H]DPCPX, HEK-293 cells.

Where a name gives a salt, the structure may show the parent alone. Where only a bound is given, the exact number is not on record here.

Take `CCOc1ccccc1-c1nc2c3cnn(CCc4ccccc4)c3nc(N)n2n1` [Compound 5c, 2-(2-Ethoxy-phenyl)-7-phenethyl-7H-pyrazolo[4,3-e][1,2,4]triazolo[1,5-c]pyrimidin-5-ylamine]: the Ki in assay [1] (setting [5]) was above 1000 nM; in assay [2] (setting [6]), 348 nM; in assay [3] (Table 2, footnote b: [3H]DPCPX) it was above 1000 nM; in assay [4] (setting [7]), above 1000 nM. The “selectivity for A3 versus the other adenosine receptor subtypes” value in assay [2] (in words) is reported as “complete selectivity”. Besides, the “affinity for / interaction with A3 adenosine receptor subtype” value in assay [2] (in words, discussion of Tables 2 and 3) is recorded as “poor affinity”.
Take `CCOC(=O)COc1ccc(-c2nc3c4cnn(CCc5ccccc5)c4nc(N)n3n2)cc1` [Compound 6, [4-(5-Amino-7-phenethyl-7H-pyrazolo[4,3-e][1,2,4]triazolo[1,5-c]pyrimidin-2-yl)-phenoxy]-acetic acid ethyl ester]: the Ki was above 1000 nM in assay [1] (setting [5]); above 1000 nM in assay [2] (setting [6]); above 1000 nM in assay [3] (Table 2, footnote b: [3H]DPCPX); above 1000 nM in assay [4] (setting [7]).
Consider `Nc1nc2c(cnn2CCc2ccccc2)c2nc(-c3ccc(OCC(=O)O)cc3)nn12` [Compound 7, [4-(5-Amino-7-phenethyl-7H-pyrazolo[4,3-e][1,2,4]triazolo[1,5-c]pyrimidin-2-yl)-phenoxy]-acetic acid], for which the Ki is above 1000 nM in assay [1] (setting [5]); above 1000 nM in assay [2] (setting [6]); above 1000 nM in assay [3] (Table 2, footnote b: [3H]DPCPX); above 1000 nM in assay [4] (setting [7]).
With `COc1ccc(Nc2c3c(nc(N)n4nc(-c5ccco5)nc34)nn2C)cc1` [Compound 39, 2-Furan-2-yl-N9-(4-methoxy-phenyl)-8-methyl-8H-pyrazolo[4,3-e][1,2,4]triazolo[1,5-c]pyrimidine-5,9-diamine], the “affinity for A2A adenosine receptor subtype” value in assay [1] is recorded as “useless”. Moreover, the Ki in assay [4] (setting [8]) is 260 nM.
Take `CN1CCN(c2c3c(nc(N)n4nc(-c5ccco5)nc34)nn2C)CC1` [Compound 40, 2-Furan-2-yl-8-methyl-9-(4-methyl-piperazin-1-yl)-8H-pyrazolo[4,3-e][1,2,4]triazolo[1,5-c]pyrimidin-5-ylamine]: the Ki came out at 156 nM in assay [1] (setting [9]), 35 nM in assay [3] (setting [10]) and 30 nM in assay [4] (setting [8]). Further, the “affinity for A2A adenosine receptor subtype” value in assay [1] is given as “useless”.
For `CSc1c2c(nc(N)n3nc(-c4ccco4)nc23)nn1CCCc1ccccc1` [Compound 43, 2-Furan-2-yl-9-methylsulfanyl-8-(3-phenyl-propyl)-8H-pyrazolo[4,3-e][1,2,4]triazolo[1,5-c]pyrimidin-5-ylamine] the same measures were 22 nM, 31 nM, 175 nM and “decrease of A2A interaction”.
In the case of `COc1ccc(NC(=O)Nc2nc3nn(C)c(N4CCN(C)CC4)c3c3nc(-c4ccco4)nn23)cc1` [Compound 45, 1-[2-Furan-2-yl-8-methyl-9-(4-methyl-piperazin-1-yl)-8H-pyrazolo[4,3-e][1,2,4]triazolo[1,5-c]pyrimidin-5-yl]-3-(4-methoxy-phenyl)-urea], the Ki came out at 26 nM in assay [3] (setting [10]) and 316 nM in assay [4] (setting [8]).
On to `Cn1nc2nc(N)n3nc(-c4ccco4)nc3c2c1Nc1ccc(O)cc1` [Compound 52, 4-(5-Amino-2-furan-2-yl-8-methyl-8H-pyrazolo[4,3-e][1,2,4]triazolo[1,5-c]pyrimidin-9-ylamino)-phenol], for which the “affinity for A2A adenosine receptor subtype” value in assay [1] was “useless”. Moreover, the inhibition constant Ki was 308 nM in assay [2] (Table 3: [3H]MRE 3008F20, human A3, CHO cells) and 666 nM in assay [4] (setting [8]).
Turning to `CCNc1c2c(nc(N)n3nc(-c4ccco4)nc23)nn1C` [Compound 53, N9-Ethyl-2-furan-2-yl-8-methyl-8H-pyrazolo[4,3-e][1,2,4]triazolo[1,5-c]pyrimidine-5,9-diamine hydrochloride salt], the Ki in assay [2] (Table 3: [3H]MRE 3008F20, human A3, CHO cells, hydrochloride salt) amounted to 25 nM; in assay [3] (Table 3: [3H]DPCPX, HEK-293 cells, hydrochloride salt) it was 36 nM; in assay [4] (Table 3: [3H]DPCPX, human A1, CHO cells, hydrochloride salt), 41 nM.
In the case of `CN1CCN(c2c3c(nc(N)n4nc(-c5ccco5)nc34)nn2C)CC1` [Compound 54, 2-Furan-2-yl-8-methyl-9-(4-methyl-piperazin-1-yl)-8H-pyrazolo[4,3-e][1,2,4]triazolo[1,5-c]pyrimidin-5-ylamine dihydrochloride salt], the Ki in assay [1] (Table 3: [3H]SCH58261, human A2A, dihydrochloride salt) came to 135 nM; in assay [3] (Table 3: [3H]DPCPX, HEK-293 cells, dihydrochloride salt), 12 nM; in assay [4] (Table 3: [3H]DPCPX, human A1, CHO cells, dihydrochloride salt) it was 48 nM.
